doi:10.1101/2025.01.28.635346v1 (bioRxiv, 2025)
Bridge positions count the residues as written; N and C are the ends. Peptide text beside a SMILES is read from it.

Columns and labels:
[1] = biological target: integrin αvβ6 (Homo sapiens, UniProt P06756+P18564); test: AlphaLISA competition assay vs LAP, biotinylated αvβ6; type: binding
[2] = biological target: integrin αvβ8 (Homo sapiens, UniProt P06756+P26012); test: AlphaLISA competition assay vs LAP, biotinylated αvβ8; type: binding

Compound | IC50 [1] [nM] | IC50 [2] [nM]
CC[C@H](C)[C@H](NC(=O)[C@H](CC(C)C)NC(=O)[C@H](CC(=O)O)NC(=O)CNC(=O)[C@H](CCCNC(=N)N)NC(=O)[C@H](Cc1ccc(O)cc1)NC(=O)[C@H](Cc1ccccc1)NC(=O)[C@H](Cc1ccc(O)cc1)NC(=O)[C@@H]1CCC(=O)NCC(=O)NCC(=O)N[C@@H](C)C(=O)NCC(=O)N[C@@H](Cc2c[nH]cn2)C(=O)N[C@@H](C(C)C)C(=O)N2CCC[C@H]2C(=O)N1)C(=O)N[C@@H](CO)C(=O)N[C@@H](Cc1ccccc1)C(=O)N[C@@H](Cc1ccc(O)cc1)C(=O)NCC(=O)O [lassotide 22] (GGAGHVPEYFYRGDLISFYG-OH; lactam N-8; C-terminus assumed) | 198 | 78
CC[C@H](C)[C@H](NC(=O)[C@H](CC(C)C)NC(=O)[C@H](CC(=O)O)NC(=O)CNC(=O)[C@H](CCCNC(=N)N)NC(=O)[C@H](CCCNC(=N)N)NC(=O)[C@H](Cc1ccccc1)NC(=O)[C@H](Cc1ccc(O)cc1)NC(=O)[C@@H]1CCC(=O)NCC(=O)NCC(=O)N[C@@H](C)C(=O)NCC(=O)N[C@@H](Cc2c[nH]cn2)C(=O)N[C@@H](C(C)C)C(=O)N2CCC[C@H]2C(=O)N1)C(=O)N[C@@H](CO)C(=O)N[C@@H](Cc1ccccc1)C(=O)N[C@@H](Cc1ccc(O)cc1)C(=O)NCC(=O)O [lassotide 20] (GGAGHVPEYFRRGDLISFYG-OH; lactam N-8; C-terminus assumed) | 17 | 38
CC(C)C[C@H](NC(=O)[C@H](CC(=O)O)NC(=O)CNC(=O)[C@H](CCCNC(=N)N)NC(=O)[C@@H](NC(=O)[C@H](Cc1ccccc1)NC(=O)[C@H](Cc1ccc(O)cc1)NC(=O)[C@@H]1CCC(=O)NCC(=O)NCC(=O)N[C@@H](C)C(=O)NCC(=O)N[C@@H](Cc2c[nH]cn2)C(=O)N[C@@H](C(C)C)C(=O)N2CCC[C@H]2C(=O)N1)C(C)C)C(=O)N[C@@H](CCC(=O)O)C(=O)N[C@@H](CO)C(=O)N[C@@H](Cc1ccccc1)C(=O)N[C@@H](Cc1ccc(O)cc1)C(=O)NCC(=O)O [lassotide 27] (GGAGHVPEYFVRGDLESFYG-OH; lactam N-8; C-terminus assumed) | 141 | 264
CC(C)C[C@H](NC(=O)[C@H](CC(=O)O)NC(=O)CNC(=O)[C@H](CCCNC(=N)N)NC(=O)[C@@H](NC(=O)[C@H](Cc1ccccc1)NC(=O)[C@H](Cc1ccc(O)cc1)NC(=O)[C@@H]1CCC(=O)NCC(=O)NCC(=O)N[C@@H](C)C(=O)NCC(=O)N[C@@H](Cc2c[nH]cn2)C(=O)N[C@@H](C(C)C)C(=O)N2CCC[C@H]2C(=O)N1)C(C)C)C(=O)N[C@@H](C)C(=O)N[C@@H](CO)C(=O)N[C@@H](Cc1ccccc1)C(=O)N[C@@H](Cc1ccc(O)cc1)C(=O)NCC(=O)O [lassotide 23] (GGAGHVPEYFVRGDLASFYG-OH; lactam N-8; C-terminus assumed) | 27 | 51
CC[C@H](C)[C@H](NC(=O)[C@@H]1CCCN1C(=O)[C@H](C)NC(=O)[C@H](CC(=O)O)NC(=O)CNC(=O)[C@H](CCCNC(=N)N)NC(=O)[C@@H](NC(=O)[C@H](Cc1ccccc1)NC(=O)[C@H](Cc1ccc(O)cc1)NC(=O)[C@@H]1CCC(=O)NCC(=O)NCC(=O)N[C@@H](C)C(=O)NCC(=O)N[C@@H](Cc2c[nH]cn2)C(=O)N[C@@H](C(C)C)C(=O)N2CCC[C@H]2C(=O)N1)C(C)C)C(=O)N[C@@H](CO)C(=O)N[C@@H](Cc1ccccc1)C(=O)N[C@@H](Cc1ccc(O)cc1)C(=O)NCC(=O)O [lassotide 4] (GGAGHVPEYFVRGDAPISFYG-OH; lactam N-8; C-terminus assumed) | 436 | 109
CC(C)C[C@H](NC(=O)[C@H](CC(=O)O)NC(=O)CNC(=O)[C@H](CCCNC(=N)N)NC(=O)[C@@H](NC(=O)[C@H](Cc1ccccc1)NC(=O)[C@H](Cc1ccc(O)cc1)NC(=O)[C@@H]1CCC(=O)NCC(=O)NCC(=O)N[C@@H](C)C(=O)NCC(=O)N[C@@H](Cc2c[nH]cn2)C(=O)N[C@@H](C(C)C)C(=O)N2CCC[C@H]2C(=O)N1)C(C)C)C(=O)N[C@@H](Cc1c[nH]c2ccccc12)C(=O)N[C@@H](CO)C(=O)N[C@@H](Cc1ccccc1)C(=O)N[C@@H](Cc1ccc(O)cc1)C(=O)NCC(=O)O [lassotide 26] (GGAGHVPEYFVRGDLWSFYG-OH; lactam N-8; C-terminus assumed) | 24 | 85
